# pKd: −log10 of the molar value.
# How the values were obtained:
# MexG-HAWA = molecular target: T1, MexG-HAWA (Pseudomonas aeruginosa, UniProt Q9HWH6, H95A/W98A); experiment: intrinsic tryptophan fluorescence quenching; type: binding
# T1 sequence (Q9HWH6 1-148 H95A/W98A): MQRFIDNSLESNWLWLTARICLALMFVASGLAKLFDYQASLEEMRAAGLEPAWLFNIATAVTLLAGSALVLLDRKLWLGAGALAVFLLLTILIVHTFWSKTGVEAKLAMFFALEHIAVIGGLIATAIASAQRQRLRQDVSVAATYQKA
# MexG = MexG (Pseudomonas aeruginosa, UniProt Q9HWH6); experiment: intrinsic tryptophan fluorescence quenching; type: binding
compound,measurement,setting,value
Cn1c2cccc(=O)c-2nc2ccccc21 [pyocyanin],pKd,MexG-HAWA,~5.15
same,pKd,MexG,~6.22
